Data: patent US20150284347A1, “NEW BENZENE SULFONAMIDE THIAZOLE COMPOUNDS” (INSERM (INSTITUT NATIONAL DE LA SANTÉ ET DE LA RECHERCHE …, priority 2012, published 2015)

How the values were obtained:
normal human melanocytes = assay: Trypan blue cell viability, normal melanocytes; type: cell-based; conditions: 10 μM, FIG. 2
Experimental: Primary cell cultures of human normal melanocytes were prepared from human foreskin. In order to determine the effect of compound HA15 on cell viability of melanocytes and fibroblasts, 10 μM of ciglitazone or 10 μM of HA15 were added to the cell samples. The measure of cell viability was performed in the same way as for FIG. 1. Results are expressed as the percentage of living cells relatively to the number of living cells in the presence of DMSO, as for FIG. 1. Normal human melanocytes (NHM) prepared from foreskins of newborns were grown under 5% CO2 at 37° C. in MCDB 153 (Sigma) supplemented with 2% FCS, bovine pituitary extract (10 μg/ml), PMA (8 nM), bFGF (ing/nil), insulin (5 μg/ml), hydrocortisone (0.5 μg/ml), forskolin (10 μM), gentamicin (20 μg/ml), penicillin/streptomycin/amphotericin B (100 U/ml) (Invitrogen). Cells were seeded in 6-well plates (60000 cells/well), depleted and incubated with compounds for the times indicated. Then cells were detached in the presence of 2000 of […] (Thermo) and 2 ml of RPMI 1640 Glutamax (Gibco) was added to the cell solution. 100 of this solution was stained for 1 minute with 100 of 0.4% trypan blue before counting with a Malassez chamber. The effect of compound HA15 on cell viability of melanocytes and fibroblasts was studied, as illustrated by FIG. 2. Primary cell cultures of human normal melanocytes were prepared from human foreskin. […]

normal human fibroblasts = assay: Trypan blue cell viability, normal fibroblasts; type: cell-based; conditions: 10 μM, FIG. 2
Experimental: Primary cell cultures of human normal melanocytes were prepared from human foreskin. In order to determine the effect of compound HA15 on cell viability of melanocytes and fibroblasts, 10 μM of ciglitazone or 10 μM of HA15 were added to the cell samples. The measure of cell viability was performed in the same way as for FIG. 1. Results are expressed as the percentage of living cells relatively to the number of living cells in the presence of DMSO, as for FIG. 1. Normal human fibroblasts prepared from foreskins of newborns were grown under 5% CO2 at 37° C. in DMEM medium supplemented with 10% FCS and penicillin/streptomycin (100 U/ml/[…]). Cells were seeded in 6-well plates (60000 cells/well), depleted and incubated with compounds for the times indicated. Then cells were detached in the presence of 2000 of […] (Thermo) and 2 ml of RPMI 1640 Glutamax (Gibco) was added to the cell solution. 100 of this solution was stained for 1 minute with 100 of 0.4% trypan blue before counting with a Malassez chamber. The effect of compound HA15 on cell viability of melanocytes and fibroblasts was studied, as illustrated by FIG. 2. Primary cell cultures of human normal melanocytes were prepared from human foreskin. In order to determine the effect of compound HA15 on cell viability of melanocytes and fibroblasts, 10 μM of ciglitazone or 10 μM of HA15 were added to the cell samples. […]

[1] = system: melanoma cells resistant to dabrafenib; assay: Trypan blue cell viability, melanoma cells resistant to dabrafenib; type: cell-based, human; conditions: patient melanoma cells resistant to dabrafenib, FIG. 5
Experimental: The measure of cell viability was performed in the same way as for FIG. 1. Results are expressed as percentage of cells alive relatively to the number of living cells in the presence of DMSO, which is a negative control
Cells were seeded in 6-well plates (60000 cells/well), depleted and incubated with compounds for the times indicated. Then cells were detached in the presence of 2000 of HyQTase (Thermo) and 2 ml of RPMI 1640 Glutamax (Gibco) was added to the cell solution. 100 of this solution was stained for 1 minute with 100 of 0.4% trypan blue before counting with a Malassez chamber.
Melanoma cells resistant to dabrafenib wee prepared from patients treated and presented a resistance to dabrafenib. dabrafenib, [HA15], [SR47] and [SR50] were tested on these resistant cells, in order to determine their activity on cell viability of resistant melanoma cells, as illustrated in FIG. 5.

phosphorylation = assay: Western blot of MAP vemurafenib activation on A375 melanoma cells; type: cell-based; conditions: FIG. 6
Experimental: FIG. 6: Western Blots showing the effect of compounds of the invention and dabrafenib on MAP Vemurafenib activation on A375 melanoma cells.
Proteins were extracted in Fisher buffer containing TRIS-HCl pH 7.5 50 mM, NaCl 15 mM, Triton X-100 1% and proteases and phosphatases inhibitors. Briefly, cell lysates (30 μg) were separated by SDS-PAGE, transferred onto a PVDF membrane (Millipore, Molsheim, France) and then exposed to the appropriate antibodies. Proteins were visualized with the ECL system from Amersham (Arlington, Heights, Ill., USA). The western blots shown are representative of at least 3 independent experiments.
Indeed, dabrafenib as PLX4032 inhibits activation of B-Raf on B-Raf V600E mutated melanoma. The inhibition of B-Raf leads to inhibition of MAP Vemurafenib cascade and could be visualized through inhibition of MAP vemurafenib phosphorylation.

A375 melanoma cells = assay: A375 melanoma xenograft tumor development in nude mice; type: in vivo; conditions: 0.7 mg/mouse/day over 24 days, athymic nude mice
Experimental: To assess a potential antineoplastic effect of (HA15) and (SR50) in vivo, A375 melanoma cells (2.5×10^6) were injected subcutaneously in 6-week-old female athymic nude mice and treated 5 days later by injection of vehicle (labrafil) or different compounds such as PLX4032, (HA15) and (SR50) (0.7 mg/mouse/day) over a period of 24 days. Inhibitory effect is expressed as the tumor volume (mm^3) on day 8, 11, 15, 18, 22 and 24.
Athymic BALB/C nu/nu mice (Harlan) were used. The animals were 6 weeks old and weighed between 20 and 25 g. The mice were housed in the animal's C3M in a 12 h/12 h cycle. The animals received water and food ad libitum. Mice were first acclimated for one week and then injected with A375 cells (2.5 million cells in 200 μl of PBS) subcutaneously into the right and left sides. Treatment was started eight days after injection of cancer cells (when tumors were visible). The various compounds were diluted in a mixture of Labrafil (90%) (Gattefosse), Tween 80 (1%) and N,N-Dimethylacetamide (9%). Five groups of six mice treated every day intraperitoneally with 0.7 mg/day of PLX4032, SR44 (HA15), SR47 (HA32), SR50 (JG25) or with the mixture of Labrafil in control were defined. Three times a week the tumor size was measured using a caliper. […]

## CC1(COc2ccc(CC3SC(=O)NC3=O)cc2)CCCCC1 (centres unmarked) [ciglitazone, reference compound]
Normal human melanocytes
  cell viability of normal melanocytes: not affected
Normal human fibroblasts
  cell viability of normal fibroblasts: not affected

## CC(C)(C)c1nc(-c2cccc(NS(=O)(=O)c3c(F)cccc3F)c2F)c(-c2ccnc(N)n2)s1 [dabrafenib]
[1]
  cell viability of resistant melanoma cells: contrary to dabrafenib inhibit cell viability of resistant melanoma cells
phosphorylation
  MAP vemurafenib expression: did not modulate
phosphorylation; versus DMSO
  MAP vemurafenib phosphorylation: complete inhibition

## CC(=O)Nc1nc(-c2ccc(NS(=O)(=O)c3cccc4c(N(C)C)cccc34)cc2)cs1 [HA32, N-(4-(4-(5-(dimethylamino)naphthalene-1-sulfonamido)phenyl)thiazol-2-yl)acetamide]
[1]
  cell viability of resistant melanoma cells: inhibit cell viability of resistant melanoma cells

## CC(=O)Nc1nc(-c2cccc(NS(=O)(=O)c3ccc(C)cc3)c2)cs1 [SR50, N-(4-(3-(4-methylphenylsulfonamido)phenyl)thiazol-2-yl)acetamide]
[1]
  cell viability of resistant melanoma cells: inhibit cell viability of resistant melanoma cells
A375 melanoma cells
  ability of cells to develop visible tumors: markedly attenuated
